# System: 138582-337-R-J1-PDC complex spheroid viability
# Assay: Anticancer human tumor 138582-337-R-J1-PDC patient-derived Merkel cell tumor cell line growth inhibition
# Settings: for IC50: curve of first compound; for viability, T/C: stronger effect = lower value
# Summary of the method: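 Complex spheroids of tumor cells with HUVEC and human MSCs, exposed to iadademstat combined with other agents. Each agent tested in half-log steps from near clinical Cmax (else 10 microM top), DMSO ≤0.25%.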
# [1] = second compound 0.1 µM, first compound 0.0316 µM
# [2] = second compound 0.1 µM, first compound 0.1 µM
# [3] = second compound 0.1 µM, first compound 0.316 µM
# [4] = second compound 0.1 µM, first compound 1 µM
# [5] = second compound 0.1 µM, first compound 3.16 µM
# [6] = second compound 0.1 µM, first compound 10 µM
# [7] = second compound 0.316 µM, first compound 0.0316 µM
# [8] = second compound 0.316 µM, first compound 0.1 µM
# [9] = second compound 0.316 µM, first compound 0.316 µM
# [10] = second compound 0.316 µM, first compound 1 µM
# [11] = second compound 0.316 µM, first compound 3.16 µM
# [12] = second compound 0.316 µM, first compound 10 µM
# [13] = second compound 1 µM, first compound 0.0316 µM
# [14] = second compound 1 µM, first compound 0.1 µM
# [15] = second compound 1 µM, first compound 0.316 µM
# [16] = second compound 1 µM, first compound 1 µM
# [17] = second compound 1 µM, first compound 3.16 µM
# [18] = second compound 1 µM, first compound 10 µM
# [19] = second compound 3.16 µM, first compound 0.0316 µM
# [20] = second compound 3.16 µM, first compound 0.1 µM
# [21] = second compound 3.16 µM, first compound 0.316 µM
# [22] = second compound 3.16 µM, first compound 1 µM
# [23] = second compound 3.16 µM, first compound 3.16 µM
# [24] = second compound 3.16 µM, first compound 10 µM
# [25] = second compound 10 µM, first compound 0.0316 µM
# [26] = second compound 10 µM, first compound 0.1 µM
# [27] = second compound 10 µM, first compound 0.316 µM
# [28] = second compound 10 µM, first compound 1 µM
# [29] = second compound 10 µM, first compound 3.16 µM
# [30] = second compound 10 µM, first compound 10 µM
# [31] = second compound 0.1 µM, first compound 0.00949 µM
# [32] = second compound 0.1 µM, first compound 0.03 µM
# [33] = second compound 0.1 µM, first compound 0.0949 µM
# [34] = second compound 0.1 µM, first compound 0.3 µM
# [35] = second compound 0.316 µM, first compound 0.00949 µM
# [36] = second compound 0.316 µM, first compound 0.03 µM
# [37] = second compound 0.316 µM, first compound 0.0949 µM
# [38] = second compound 0.316 µM, first compound 0.3 µM
# [39] = second compound 1 µM, first compound 0.00949 µM
# [40] = second compound 1 µM, first compound 0.03 µM
# [41] = second compound 1 µM, first compound 0.0949 µM
# [42] = second compound 1 µM, first compound 0.3 µM
# [43] = second compound 3.16 µM, first compound 0.00949 µM
# [44] = second compound 3.16 µM, first compound 0.03 µM
# [45] = second compound 3.16 µM, first compound 0.0949 µM
# [46] = second compound 3.16 µM, first compound 0.3 µM
# [47] = second compound 10 µM, first compound 0.00949 µM
# [48] = second compound 10 µM, first compound 0.03 µM
# [49] = second compound 10 µM, first compound 0.0949 µM
# [50] = second compound 10 µM, first compound 0.3 µM
# 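For viability, T/C in this document: 100% = DMSO vehicle control viability.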
smiles,measurement,setting,value
CC1(C)CCC(CN2CCN(c3ccc(C(=O)NS(=O)(=O)c4ccc(NCC5CCOCC5)c([N+](=O)[O-])c4)c(Oc4cnc5[nH]ccc5c4)c3)CC2)=C(c2ccc(Cl)cc2)C1 + NC1CCC(NC2CC2c2ccccc2)CC1,IC50,second compound 0.1 µM,> 10000 nM
same,IC50,second compound 0.316 µM,> 10000 nM
same,IC50,second compound 1 µM,> 10000 nM
same,IC50,second compound 3.16 µM,> 10000 nM
same,IC50,second compound 10 µM,> 10000 nM
same,"viability, T/C",[1],85.4%
same,"viability, T/C",[2],95%
same,"viability, T/C",[3],92.5%
same,"viability, T/C",[4],91.8%
same,"viability, T/C",[5],90.7%
same,"viability, T/C",[6],126%
same,"viability, T/C",[7],95.9%
same,"viability, T/C",[8],104%
same,"viability, T/C",[9],99.1%
same,"viability, T/C",[10],109%
same,"viability, T/C",[11],96.8%
same,"viability, T/C",[12],88.7%
same,"viability, T/C",[13],99.8%
same,"viability, T/C",[14],89.9%
same,"viability, T/C",[15],82.3%
same,"viability, T/C",[16],79.9%
same,"viability, T/C",[17],92.1%
same,"viability, T/C",[18],81.3%
same,"viability, T/C",[19],90.7%
same,"viability, T/C",[20],100%
same,"viability, T/C",[21],108%
same,"viability, T/C",[22],106%
same,"viability, T/C",[23],92.5%
same,"viability, T/C",[24],77.3%
same,"viability, T/C",[25],80.2%
same,"viability, T/C",[26],88.1%
same,"viability, T/C",[27],70.8%
same,"viability, T/C",[28],78.7%
same,"viability, T/C",[29],78.3%
same,"viability, T/C",[30],63.5%
CC1COCCN1c1cc(C2(S(C)(=N)=O)CC2)nc(-c2ccnc3[nH]ccc23)n1 (stereo not given) + NC1CCC(NC2CC2c2ccccc2)CC1,IC50,second compound 0.1 µM,> 10000 nM
same,IC50,second compound 0.316 µM,> 10000 nM
same,IC50,second compound 1 µM,> 10000 nM
same,IC50,second compound 3.16 µM,> 10000 nM
same,IC50,second compound 10 µM,2250 nM
same,"viability, T/C",[1],107%
same,"viability, T/C",[2],91.1%
same,"viability, T/C",[3],83.2%
same,"viability, T/C",[4],89.1%
same,"viability, T/C",[5],63.4%
same,"viability, T/C",[6],49.4%
same,"viability, T/C",[7],105%
same,"viability, T/C",[8],99%
same,"viability, T/C",[9],86.9%
same,"viability, T/C",[10],83%
same,"viability, T/C",[11],64.1%
same,"viability, T/C",[12],52.9%
same,"viability, T/C",[13],88.1%
same,"viability, T/C",[14],93.4%
same,"viability, T/C",[15],100%
same,"viability, T/C",[16],65.3%
same,"viability, T/C",[17],59.8%
same,"viability, T/C",[18],60.9%
same,"viability, T/C",[19],92.6%
same,"viability, T/C",[20],93.2%
same,"viability, T/C",[21],98%
same,"viability, T/C",[22],78.2%
same,"viability, T/C",[23],63.1%
same,"viability, T/C",[24],49.5%
same,"viability, T/C",[25],87.3%
same,"viability, T/C",[26],88.1%
same,"viability, T/C",[27],71%
same,"viability, T/C",[28],62.1%
same,"viability, T/C",[29],46.1%
same,"viability, T/C",[30],21.3%
CCN(c1cc(-c2ccc(CN3CCOCC3)cc2)cc(C(=O)NCc2c(C)cc(C)[nH]c2=O)c1C)C1CCOCC1 + NC1CCC(NC2CC2c2ccccc2)CC1,IC50,second compound 0.1 µM,> 3000 nM
same,IC50,second compound 0.316 µM,> 3000 nM
same,IC50,second compound 1 µM,> 3000 nM
same,IC50,second compound 3.16 µM,> 3000 nM
same,IC50,second compound 10 µM,> 3000 nM
same,"viability, T/C",[31],101%
same,"viability, T/C",[32],87.9%
same,"viability, T/C",[33],109%
same,"viability, T/C",[34],92.4%
same,"viability, T/C","second compound 0.1 µM, first compound 0.949 µM",106%
same,"viability, T/C","second compound 0.1 µM, first compound 3 µM",111%
same,"viability, T/C",[35],101%
same,"viability, T/C",[36],101%
same,"viability, T/C",[37],91%
same,"viability, T/C",[38],95.3%
same,"viability, T/C","second compound 0.316 µM, first compound 0.949 µM",124%
same,"viability, T/C","second compound 0.316 µM, first compound 3 µM",105%
same,"viability, T/C",[39],98.6%
same,"viability, T/C",[40],106%
same,"viability, T/C",[41],98.2%
same,"viability, T/C",[42],90.3%
same,"viability, T/C","second compound 1 µM, first compound 0.949 µM",97.7%
same,"viability, T/C","second compound 1 µM, first compound 3 µM",103%
same,"viability, T/C",[43],99.2%
same,"viability, T/C",[44],103%
same,"viability, T/C",[45],90.6%
same,"viability, T/C",[46],92.3%
same,"viability, T/C","second compound 3.16 µM, first compound 0.949 µM",110%
same,"viability, T/C","second compound 3.16 µM, first compound 3 µM",105%
same,"viability, T/C",[47],88.9%
same,"viability, T/C",[48],86.7%
same,"viability, T/C",[49],82.2%
same,"viability, T/C",[50],90.9%
same,"viability, T/C","second compound 10 µM, first compound 0.949 µM",84.9%
same,"viability, T/C","second compound 10 µM, first compound 3 µM",84.8%
Nc1ncn(C2CC(O)C(CO)S2)c(=O)n1 (stereo not given) + NC1CCC(NC2CC2c2ccccc2)CC1,IC50,second compound 0.1 µM,> 300 nM
same,IC50,second compound 0.316 µM,> 300 nM
same,IC50,second compound 1 µM,> 300 nM
same,IC50,second compound 3.16 µM,> 300 nM
same,IC50,second compound 10 µM,> 300 nM
same,"viability, T/C","second compound 0.1 µM, first compound 0.000949 µM",98.9%
same,"viability, T/C","second compound 0.1 µM, first compound 0.003 µM",105%
same,"viability, T/C",[31],101%
same,"viability, T/C",[32],102%
same,"viability, T/C",[33],106%
same,"viability, T/C",[34],93.5%
same,"viability, T/C","second compound 0.316 µM, first compound 0.000949 µM",95%
same,"viability, T/C","second compound 0.316 µM, first compound 0.003 µM",93.9%
same,"viability, T/C",[35],96.4%
same,"viability, T/C",[36],95.4%
same,"viability, T/C",[37],94.5%
same,"viability, T/C",[38],108%
same,"viability, T/C","second compound 1 µM, first compound 0.000949 µM",90.9%
same,"viability, T/C","second compound 1 µM, first compound 0.003 µM",103%
same,"viability, T/C",[39],107%
same,"viability, T/C",[40],87.8%
same,"viability, T/C",[41],81%
same,"viability, T/C",[42],100%
same,"viability, T/C","second compound 3.16 µM, first compound 0.000949 µM",89.2%
same,"viability, T/C","second compound 3.16 µM, first compound 0.003 µM",96%
same,"viability, T/C",[43],88%
same,"viability, T/C",[44],78.4%
same,"viability, T/C",[45],93.5%
same,"viability, T/C",[46],84.7%
same,"viability, T/C","second compound 10 µM, first compound 0.000949 µM",80.1%
same,"viability, T/C","second compound 10 µM, first compound 0.003 µM",80.4%
same,"viability, T/C",[47],91.4%
same,"viability, T/C",[48],87.5%
same,"viability, T/C",[49],78.6%
same,"viability, T/C",[50],85%
O=C(C=Cn1cnc(-c2cc(C(F)(F)F)cc(C(F)(F)F)c2)n1)NNc1cnccn1 + NC1CCC(NC2CC2c2ccccc2)CC1,IC50,second compound 0.1 µM,8.4 nM
same,IC50,second compound 0.316 µM,9.48 nM
same,IC50,second compound 1 µM,7.39 nM
same,IC50,second compound 3.16 µM,6.26 nM
same,IC50,second compound 10 µM,5.57 nM
same,"viability, T/C","second compound 0.1 µM, first compound 0.00316 µM",73.5%
same,"viability, T/C","second compound 0.1 µM, first compound 0.01 µM",45.8%
same,"viability, T/C",[1],21.6%
same,"viability, T/C",[2],18.4%
same,"viability, T/C",[3],22.6%
same,"viability, T/C",[4],17.4%
same,"viability, T/C","second compound 0.316 µM, first compound 0.00316 µM",67%
same,"viability, T/C","second compound 0.316 µM, first compound 0.01 µM",49.1%
same,"viability, T/C",[7],21.2%
same,"viability, T/C",[8],20.7%
same,"viability, T/C",[9],30.3%
same,"viability, T/C",[10],21.7%
same,"viability, T/C","second compound 1 µM, first compound 0.00316 µM",82.5%
same,"viability, T/C","second compound 1 µM, first compound 0.01 µM",38.4%
same,"viability, T/C",[13],21.4%
same,"viability, T/C",[14],20.5%
same,"viability, T/C",[15],21.6%
same,"viability, T/C",[16],23.1%
same,"viability, T/C","second compound 3.16 µM, first compound 0.00316 µM",61%
same,"viability, T/C","second compound 3.16 µM, first compound 0.01 µM",42.4%
same,"viability, T/C",[19],19%
same,"viability, T/C",[20],20.1%
same,"viability, T/C",[21],22.8%
same,"viability, T/C",[22],24.7%
same,"viability, T/C","second compound 10 µM, first compound 0.00316 µM",75%
same,"viability, T/C","second compound 10 µM, first compound 0.01 µM",24.6%
same,"viability, T/C",[25],11.9%
same,"viability, T/C",[26],18%
same,"viability, T/C",[27],24.5%
same,"viability, T/C",[28],31.8%

# Reference: PubChem BioAssay AID1918931 (Molecular Pharmacology Branch, DTP, NCI, 2023)
